Ki data for 23 molecules are collected here from patent US8653263B2 (Janssen Pharmaceutica, priority 2009, dated 2014).

Each structure is given as a SMILES string.

Chain of human orexin-2 receptor (O43614 whole entry): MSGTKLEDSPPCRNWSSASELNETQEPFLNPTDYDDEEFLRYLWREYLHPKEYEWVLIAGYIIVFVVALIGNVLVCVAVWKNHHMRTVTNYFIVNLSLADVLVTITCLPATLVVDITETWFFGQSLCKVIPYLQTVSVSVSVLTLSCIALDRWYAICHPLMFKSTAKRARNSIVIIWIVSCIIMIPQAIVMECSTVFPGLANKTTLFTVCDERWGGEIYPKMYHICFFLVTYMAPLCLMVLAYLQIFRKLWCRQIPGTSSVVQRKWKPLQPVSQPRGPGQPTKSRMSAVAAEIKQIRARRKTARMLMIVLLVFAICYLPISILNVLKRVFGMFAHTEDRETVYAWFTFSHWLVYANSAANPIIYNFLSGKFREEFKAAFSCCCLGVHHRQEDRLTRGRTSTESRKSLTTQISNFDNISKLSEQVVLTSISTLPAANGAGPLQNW

One assay has as its target human orexin-2 receptor (Homo sapiens (Human), UniProt O43614). In words: Human orexin 2 receptor radioligand binding ([3H]-EMPA competition). To be noted: HEK293 cells stably expressing human orexin-2 receptor; [3H]-EMPA 5 nM final; apparent Ki=IC50/(1+C/Kd), Kd=2 nM; read-out: OR 2 Ki.
On to `Cc1nc(N2CC3CN(C(=O)c4ccccc4-c4ncn(C)n4)CC3C2)ncc1F` (centres unmarked) [Example 312, 2-(5-Fluoro-4-methylpyrimidin-2-yl)-5-{[2-(1-methyl-1H-1,2,4-triazol-3-yl)phenyl]carbonyl}octahydropyrrolo[3,4-c]pyrrole], for which the Ki was determined as 0.079 µM.

Take `Cc1cc(C)nc(N2CC3CN(C(=O)c4c(F)cccc4-c4nc(C)no4)CC3C2)n1` (centres unmarked) [Example 315, 2-(4,6-Dimethylpyrimidin-2-yl)-5-{[2-fluoro-6-(3-methyl-1,2,4-oxadiazol-5-yl)phenyl]carbonyl}octahydropyrrolo[3,4-c]pyrrole]: the Ki amounted to 0.038 µM.

Consider `Cc1noc(-c2ccccc2C(=O)N2CC3CN(c4nc(C)c(Cl)c(C)n4)CC3C2)n1` (centres unmarked) [Example 318, 2-(5-Chloro-4,6-dimethylpyrimidin-2-yl)-5-{[2-(3-methyl-1,2,4-oxadiazol-5-yl)phenyl]carbonyl}octahydropyrrolo[3,4-c]pyrrole], for which the Ki worked out at 0.005 µM.

With `Cc1noc(-c2ccccc2C(=O)N2CC3CN(c4nc(C)c5c(n4)CCC5)CC3C2)n1` (centres unmarked) [Example 319, 4-Methyl-2-[5-{[2-(3-methyl-1,2,4-oxadiazol-5-yl)phenyl]carbonyl}hexahydropyrrolo[3,4-c]pyrrol-2(1H)-yl]-6,7-dihydro-5H-cyclopenta[d]pyrimidine], the Ki came out at 0.018 µM.

For the molecule `Cc1nc(N2CC3CN(C(=O)c4ccccc4-c4ncn(C)n4)CC3C2)nc(C)c1Cl` (centres unmarked) [Example 320, 2-(5-Chloro-4,6-dimethylpyrimidin-2-yl)-5-{[2-(1-methyl-1H-1,2,4-triazol-3-yl)phenyl]carbonyl}octahydropyrrolo[3,4-c]pyrrole], the Ki is 0.004 µM.

For the molecule `CCc1c(C)nc(N2CC3CN(C(=O)c4ccccc4-c4ncn(C)n4)CC3C2)nc1C` (centres unmarked) [Example 322, 2-(5-Ethyl-4,6-dimethylpyrimidin-2-yl)-5-{[2-(1-methyl-1H-1,2,4-triazol-3-yl)phenyl]carbonyl}octahydropyrrolo[3,4-c]pyrrole], the Ki came out at 0.01 µM.

For `Cc1nc(N2CC3CN(C(=O)c4ncccc4-n4nccn4)CC3C2)nc(C)c1C` (centres unmarked) [Example 323, 2-{[3-(2H-1,2,3-Triazol-2-yl)pyridin-2-yl]carbonyl}-5-(4,5,6-trimethylpyrimidin-2-yl)octahydropyrrolo[3,4-c]pyrrole], the Ki worked out at 0.025 µM.

Take `Cc1nc(N2CC3CN(C(=O)c4ncccc4-n4nccn4)CC3C2)nc(C)c1F` (centres unmarked) [Example 325, 2-(5-Fluoro-4,6-dimethylpyrimidin-2-yl)-5-{[3-(2H-1,2,3-triazol-2-yl)pyridin-2-yl]carbonyl}octahydropyrrolo[3,4-c]pyrrole]: the Ki stood at 0.016 µM.

Regarding `Cc1cc(C)nc(N2CC3CN(C(=O)c4cccc5c4-c4ccccc4C5)CC3C2)n1` (centres unmarked) [Example 326, 2-(4,6-Dimethylpyrimidin-2-yl)-5-(9H-fluoren-4-ylcarbonyl)octahydropyrrolo[3,4-c]pyrrole], the Ki stood at 0.008 µM.

As to `Cc1cc(C)nc(N2CC3CN(C(=O)c4c(-n5nccn5)ccc5c4OCO5)CC3C2)n1` (centres unmarked) [Example 327, [5-(4,6-Dimethyl-pyrimidin-2-yl)-hexahydro-pyrrolo[3,4-c]pyrrol-2-yl]-(5-[1,2,3]triazol-2-yl-benzo[1,3]dioxol-4-yl)methanone], the Ki is 0.103 µM.

On to `Cc1cc(C)nc(N2CC3CN(C(=O)c4cccc5cccc(-n6nccn6)c45)CC3C2)n1` (centres unmarked) [Example 328, [5-(4,6-Dimethyl-pyrimidin-2-yl)-hexahydro-pyrrolo[3,4-c]pyrrol-2-yl]-(8-[1,2,3]triazol-2-yl-naphthalen-1-yl)-methanone], for which the Ki stood at 0.112 µM.

With `COc1ccc(C(C)(C)C)cc1C(=O)N1CC2CN(c3nc(C)cc(C)n3)CC2C1` (centres unmarked) [Example 330, (5-tert-Butyl-2-methoxy-phenyl)-[5-(4,6-dimethyl-pyrimidin-2-yl)-hexahydro-pyrrolo[3,4-c]pyrrol-2-yl]-methanone], the Ki was found to be 10 µM.

For the molecule `Cc1cc(C)nc(N2CC3CN(C(=O)c4cccc5c4OCCCO5)CC3C2)n1` (centres unmarked) [Example 334, (3,4-Dihydro-2H-benzo[b][1,4]dioxepin-6-yl)-[5-(4,6-dimethyl-pyrimidin-2-yl)-hexahydro-pyrrolo[3,4-c]pyrrol-2-yl]-methanone], the Ki is 0.277 µM.

With `Cc1cccc(-c2cc(F)ccc2C(=O)N2CC3CN(c4nc(C)cc(C)n4)CC3C2)n1` (centres unmarked) [Example 335, (5-(4,6-dimethylpyrimidin-2-yl)hexahydropyrrolo[3,4-c]pyrrol-2(1H)-yl)(4-fluoro-2-(6-methylpyridin-2-yl)phenyl)methanone], the Ki worked out at 0.059 µM.

As to `Cc1cc(C)nc(N2CC3CN(C(=O)c4ccc(C)nc4-n4ccnn4)CC3C2)n1` (centres unmarked) [Example 336, [5-(4,6-Dimethyl-pyrimidin-2-yl)-hexahydro-pyrrolo[3,4-c]pyrrol-2-yl]-(6-methyl-2-[1,2,3]triazol-1-yl-pyridin-3-yl)-methanone], the Ki was 0.288 µM.

Take `Cc1cc(C)nc(N2CC3CN(C(=O)c4ccc5ccccc5c4Br)CC3C2)n1` (centres unmarked) [Example 337, (1-Bromo-naphthalen-2-yl)-[5-(4,6-dimethyl-pyrimidin-2-yl)-hexahydro-pyrrolo[3,4-c]pyrrol-2-yl]-methanone]: the Ki was 0.513 µM.

With `COc1cc2ccccc2cc1C(=O)N1CC2CN(c3nc(C)cc(C)n3)CC2C1` (centres unmarked) [Example 338, [5-(4,6-Dimethyl-pyrimidin-2-yl)-hexahydro-pyrrolo[3,4-c]pyrrol-2-yl]-(3-methoxy-naphthalen-2-yl)-methanone], the Ki was determined as 1.6 µM.

On to `COc1c(C(=O)N2CC3CN(c4nc(C)cc(C)n4)CC3C2)ccc2ccccc12` (centres unmarked) [Example 340, [5-(4,6-Dimethyl-pyrimidin-2-yl)-hexahydro-pyrrolo[3,4-c]pyrrol-2-yl]-(1-methoxy-naphthalen-2-yl)-methanone], for which the Ki was found to be 1.52 µM.

Turning to `Cc1ccnc(-c2cc(F)ccc2C(=O)N2CC3CN(c4nc(C)cc(C)n4)CC3C2)c1` (centres unmarked) [Example 343, (5-(4,6-Dimethylpyrimidin-2-yl)hexahydropyrrolo[3,4-c]pyrrol-2(1H)-yl)(4-fluoro-2-(4-methylpyridin-2-yl)phenyl)methanone], the Ki stood at 0.036 µM.

As for `CCCOc1cccnc1C(=O)N1CC2CN(c3nc(C)cc(C)n3)CC2C1` (centres unmarked) [Example 344, (5-(4,6-dimethylpyrimidin-2-yl)hexahydropyrrolo[3,4-c]pyrrol-2(1H)-yl)(3-propoxypyridin-2-yl)methanone], the Ki is 1.5 µM.

In the case of `Cc1cc(C)nc(N2CC3CN(C(=O)c4ccc(F)cc4-c4ncccc4F)CC3C2)n1` (centres unmarked) [Example 346, (5-(4,6-Dimethylpyrimidin-2-yl)hexahydropyrrolo[3,4-c]pyrrol-2(1H)-yl)(4-fluoro-2-(3-fluoropyridin-2-yl)phenyl)methanone], the Ki amounted to 0.025 µM.

For `CCCOc1cccnc1C(=O)N1CC2CN(c3cnc4ccccc4n3)CC2C1` (centres unmarked) [Example 347, (3-Propoxypyridin-2-yl)(5-(quinoxalin-2-yl)hexahydropyrrolo[3,4-c]pyrrol-2(1H)-yl)methanone], the Ki amounted to 3.1 µM.

Staying with this assay, now noted: read-out: OR 2 Ki.
Take `Cc1nc(N2CC3CN(C(=O)c4ccccc4-c4ncn(C)n4)CC3C2)ncc1Cl` (centres unmarked) [Example 321, 2-(5-Chloro-4-methylpyrimidin-2-yl)-5-{[2-(1-methyl-1H-1,2,4-triazol-3-yl)phenyl]carbonyl}octahydropyrrolo[3,4-c]pyrrole]: the Ki is 0.029 µM.
